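Following 48 hours of exposure in 96-well plates, responses at five concentrations were used to interpolate endpoints linearly. At the GI50, growth is halved. TGI denotes the concentration required for complete inhibition of growth.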 Where only a bound is given, the exact number is not on record here.

Some test systems named below: CCRF-CEM leukemia; HCC-2998 colon; HOP-62 NSCLC; MCF7 breast; MOLT-4 leukemia; OVCAR-3 ovarian; OVCAR-5 ovarian; RPMI-8226 leukemia; SF-295 CNS; SR leukemia.
Experiment in all cases: growth of human tumour cells (NCI), 48 h

Regarding `CCOC(=O)c1ccc(NC(=O)Nc2nncs2)cc1`, the GI50 in the test with CCRF-CEM leukemia was 0.23 µM; in the test with HCC-2998 colon, 0.571 µM; in the test with HOP-62 NSCLC, 0.237 µM; with MCF7 breast, 0.116 µM; in the test with MOLT-4 leukemia, 0.384 µM; in the test on OVCAR-3 ovarian, 0.0963 µM. In addition, the GI50 is 0.78 µM in the test with OVCAR-5 ovarian, 0.499 µM in the test with RPMI-8226 leukemia, 0.262 µM with SF-295 CNS and 0.0527 µM in the test with SR leukemia. Moreover, the TGI is > 52.7 µM with CCRF-CEM leukemia; 8.24 µM in the test with HCC-2998 colon; 15.6 µM with HOP-62 NSCLC; > 32.9 µM in the test with MCF7 breast; > 48.7 µM with MOLT-4 leukemia; 0.415 µM in the test with OVCAR-3 ovarian. Further, the TGI is > 100 µM in the test on OVCAR-5 ovarian, 10.2 µM in the test on RPMI-8226 leukemia, 0.988 µM with SF-295 CNS and 24.3 µM in the test with SR leukemia.

As for `CC(=O)O[C@H]1C(=O)[C@@]2(C)C(C(OC(=O)c3ccccc3)[C@]3(O)C[C@H](OC(=O)C(OC(=O)CCCC(=O)NCCCN(C)C)C(NC(=O)c4ccccc4)c4ccccc4)C(C)=C1C3(C)C)C1(OC(C)=O)COC1C[C@@H]2O` (stereo not given in full), the TGI is 9.58 µM with CCRF-CEM leukemia; 0.0309 µM with HCC-2998 colon; 11.4 µM in the test with HOP-62 NSCLC; 48.5 µM in the test on MCF7 breast; 12.5 µM with MOLT-4 leukemia; < 0.01 µM in the test with OVCAR-3 ovarian. The TGI with OVCAR-5 ovarian came out at 13.1 µM; in the test on RPMI-8226 leukemia, 28.7 µM; with SF-295 CNS it was 1.28 µM; with SR leukemia, 58.2 µM.

Turning to `NS(=O)(=O)c1ccc(Nc2cc(-c3cccc(O)c3)[nH]n2)cc1`, the GI50 is 8.04 µM with CCRF-CEM leukemia; > 25 µM in the test with HCC-2998 colon; > 25 µM with HOP-62 NSCLC; > 25 µM in the test on MCF7 breast; 13.4 µM in the test with MOLT-4 leukemia; 16.2 µM in the test with OVCAR-3 ovarian. In addition, the GI50 with OVCAR-5 ovarian was > 25 µM; in the test with RPMI-8226 leukemia it was > 25 µM; in the test on SF-295 CNS it was > 25 µM; in the test on SR leukemia it was 24.2 µM. Besides, the TGI in the test with CCRF-CEM leukemia, in the test on HCC-2998 colon, with HOP-62 NSCLC, in the test on MCF7 breast, in the test on MOLT-4 leukemia and in the test on OVCAR-3 ovarian was > 25 µM throughout. The TGI in the test with OVCAR-5 ovarian, in the test with RPMI-8226 leukemia, in the test with SF-295 CNS and in the test with SR leukemia was > 25 µM in each case.

These data come from PubChem BioAssay (NCI).
